The results in this text go back to PubChem BioAssay AID328 (DTP/NCI, 2004).

SMILES strings stand for the structures. Values joined by “and” are separate entries in the source; they are usually repeats but may differ in a detail not shown here. Identical values can stand only once. Toxic doses and inconclusive results are not listed.

This assay relates to BDF1 mice, P388 leukemia ip, median survival T/C. The experiment in a line: NCI In Vivo Anticancer Drug Screen. Data for tumor model P388 Leukemia (intraperitoneal) in B6D2F1 (BDF1) mice. The settings on record: endpoint: median survival time, higher = longer survival. The method in brief: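 Vehicle-dosed animals serve as the reference; survival of compound-dosed, tumour-implanted mice is divided by it.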

[1] abbreviates: dose: 1.56 mg/kg/injection, schedule: Q01DX009 (ip), vehicle: water.
[2] abbreviates: dose: 3.12 mg/kg/injection, schedule: Q01DX009 (ip), vehicle: water.
Setting [3] is: dose: 12.5 mg/kg/injection, schedule: Q01DX009 (ip), vehicle: water.
Where [4] appears, read: dose: 25.0 mg/kg/injection, schedule: Q01DX009 (ip), vehicle: water.
Where [5] appears, read: dose: 100.0 mg/kg/injection, schedule: Q04DX003 (ip), vehicle: saline with Tween-80.
The mark [6] stands for this setting: dose: 200.0 mg/kg/injection, schedule: Q04DX003 (ip), vehicle: saline with Tween-80.
Where [7] appears, read: dose: 400.0 mg/kg/injection, schedule: Q04DX003 (ip), vehicle: saline with Tween-80.
Setting [8] is: dose: 50.0 mg/kg/injection, schedule: Q01DX009 (ip), vehicle: Klucel (hydroxypropylcellulose) (HPC).
Where [9] appears, read: dose: 100.0 mg/kg/injection, schedule: Q01DX009 (ip), vehicle: Klucel (hydroxypropylcellulose) (HPC).
Where [10] appears, read: dose: 100.0 mg/kg/injection, schedule: Q04DX003 (ip), vehicle: saline.
Where [11] appears, read: dose: 50.0 mg/kg/injection, schedule: Q04DX003 (ip), vehicle: saline.
[12] abbreviates: dose: 200.0 mg/kg/injection, schedule: Q04DX003 (ip), vehicle: saline.
[13] abbreviates: dose: 50.0 mg/kg/injection, schedule: Q01DX009 (ip), vehicle: saline with Tween-80.
[14] abbreviates: dose: 100.0 mg/kg/injection, schedule: Q01DX009 (ip), vehicle: saline with Tween-80.
The mark [15] stands for this setting: dose: 200.0 mg/kg/injection, schedule: Q01DX009 (ip), vehicle: saline with Tween-80.
Setting [16] is: dose: 50.0 mg/kg/injection, schedule: Q04DX002 (ip), vehicle: saline with Tween-80.
Setting [17] is: dose: 25.0 mg/kg/injection, schedule: Q01DX009 (ip), vehicle: saline.
Setting [18] is: dose: 50.0 mg/kg/injection, schedule: Q01DX009 (ip), vehicle: saline.
[19] abbreviates: dose: 100.0 mg/kg/injection, schedule: Q01DX009 (ip), vehicle: saline.

On to `O=C1/C(=C\c2ccccc2)C(Br)c2ccccc21` (stereo not given), for which the T/C is 87 % of control under setting [1]; 108 % of control under setting [2]; 108 % of control (dose: 6.25 mg/kg/injection, schedule: Q01DX009 (ip), vehicle: water); 100 % of control (dose: 6.25 mg/kg/injection, schedule: Q04DX003 (ip), vehicle: water); 110 % of control under setting [3]; 105 % of control (dose: 12.5 mg/kg/injection, schedule: Q04DX003 (ip), vehicle: water). In addition, the T/C by setting is: under setting [4], 110 % of control; (dose: 25.0 mg/kg/injection, schedule: Q04DX003 (ip), vehicle: water) 105 % of control; (dose: 50.0 mg/kg/injection, schedule: Q04DX003 (ip), vehicle: water) 91 % of control.
As for `CCCCCCCC(=O)Nc1c(C)cc(C)cc1C`, the T/C under setting [5] is 109 % of control, the T/C under setting [6] is 100 % of control and the T/C under setting [7] was 109 % of control.
In the case of `NC(COC(c1ccccc1)(c1ccccc1)c1ccccc1)C(=O)O` (stereo not given), the T/C reads like this: under setting [8], 120 % of control; (dose: 65.0 mg/kg/injection, schedule: Q01DX009 (ip), vehicle: Klucel (hydroxypropylcellulose) (HPC)) 150 % of control; (dose: 85.0 mg/kg/injection, schedule: Q04DX003 (ip), vehicle: other) 120 % of control; under setting [9], 155 % of control and 160 % of control; under setting [10], 122 % of control; (dose: 150.0 mg/kg/injection, schedule: Q01DX009 (ip), vehicle: Klucel (hydroxypropylcellulose) (HPC)) 205 % of control. Further, the T/C reads like this: (dose: 200.0 mg/kg/injection, schedule: Q01DX009 (ip), vehicle: Klucel (hydroxypropylcellulose) (HPC)) 90 % of control; (dose: 200.0 mg/kg/injection, schedule: Q04DX003 (ip), vehicle: other) 150 % of control; (dose: 300.0 mg/kg/injection, schedule: Q04DX003 (ip), vehicle: other) 200 % of control.
For the compound `CC(C)(O)C(Cl)(Cl)Cl`, the T/C is 115 % of control under setting [11], 111 % of control under setting [10] and 107 % of control under setting [12].
As to `COc1ccc(/C=C(/C)[N+](=O)[O-])cc1OC`, the T/C was 109 % of control (dose: 50.0 mg/kg/injection, schedule: Q01DX001 (ip), vehicle: saline with Tween-80); 113 % of control (dose: 100.0 mg/kg/injection, schedule: Q01DX001 (ip), vehicle: saline with Tween-80); 104 % of control (dose: 100.0 mg/kg/injection, schedule: Q04DX003 (ip), vehicle: Klucel (hydroxypropylcellulose) (HPC)); 118 % of control (dose: 200.0 mg/kg/injection, schedule: Q01DX001 (ip), vehicle: saline with Tween-80); 109 % of control (dose: 200.0 mg/kg/injection, schedule: Q04DX003 (ip), vehicle: Klucel (hydroxypropylcellulose) (HPC)).
Take `N/C(=N\OS(=O)(=O)c1ccccc1)Oc1ccccc1`: the T/C by setting is: under setting [5], 97 % of control; under setting [6], 95 % of control; under setting [7], 99 % of control.
With `CCOc1ccc2[nH]c(=S)sc2c1`, the T/C was 116 % of control (dose: 100.0 mg/kg/injection, schedule: Q01DX001 (ip), vehicle: Klucel (hydroxypropylcellulose) (HPC)); 91 % of control (dose: 200.0 mg/kg/injection, schedule: Q01DX001 (ip), vehicle: Klucel (hydroxypropylcellulose) (HPC)); 95 % of control (dose: 400.0 mg/kg/injection, schedule: Q01DX001 (ip), vehicle: Klucel (hydroxypropylcellulose) (HPC)).
For `CCOC(=O)C(CCC(=O)OC)C1=NC(C)(C)CC(C)O1` (stereo not given), the T/C runs as follows: (dose: 50.0 mg/kg/injection, schedule: Q01DX001 (ip), vehicle: saline sonified) 104 % of control; (dose: 100.0 mg/kg/injection, schedule: Q01DX001 (ip), vehicle: saline sonified) 100 % of control; (dose: 200.0 mg/kg/injection, schedule: Q01DX001 (ip), vehicle: saline sonified) 100 % of control.
As for `CCCN(CCC)CC(O)c1cc2cc(C(F)(F)F)cc(C(F)(F)F)c2c2ccccc12` (stereo not given), the T/C is 107 % of control under setting [13] and 114 % of control under setting [14].
`CC1CCC(C)N1P(=O)(N1CC1)N1CC1` (stereo not given): the T/C is, setting by setting: (dose: 16.5 mg/kg/injection, schedule: Q04DX003 (ip), vehicle: saline with Tween-80) 168 % of control and 183 % of control; (dose: 25.0 mg/kg/injection, schedule: Q04DX003 (ip), vehicle: saline with Tween-80) 120 % of control and 218 % of control.
As for `CC(C)(C)NCCC(O)c1cc2c(Cl)cc(Cl)cc2c2cc(C(F)(F)F)ccc12` (stereo not given), the T/C runs as follows: (dose: 12.5 mg/kg/injection, schedule: Q01DX009 (ip), vehicle: saline with Tween-80) 90 % of control; (dose: 25.0 mg/kg/injection, schedule: Q01DX009 (ip), vehicle: saline with Tween-80) 106 % of control; under setting [13], 108 % of control and 114 % of control.
For `Cc1[nH]c(=O)[nH]c(=O)c1I`, the T/C reads like this: under setting [13], 105 % of control; under setting [14], 99 % of control; under setting [15], 101 % of control.
On to `C=C1CC(C2CCC(C)(C)C2)OC1=O` (stereo not given), for which the T/C is 102 % of control (dose: 25.0 mg/kg/injection, schedule: Q04DX002 (ip), vehicle: saline with Tween-80) and 100 % of control under setting [16].
With `O=C(Nc1ccccc1)c1c(-c2ccccc2)oc2ccccc2c1=O`, the T/C by setting is: under setting [16], 95 % of control; (dose: 100.0 mg/kg/injection, schedule: Q04DX002 (ip), vehicle: saline with Tween-80) 115 % of control; (dose: 200.0 mg/kg/injection, schedule: Q04DX002 (ip), vehicle: saline with Tween-80) 100 % of control.
With `CC(=O)OC1CCC2(C)C(CC(=O)C(C)C23CCC2(C=COC2)O3)C1(C)C` (stereo not given), the T/C by setting is: under setting [17], 113 % of control; under setting [18], 105 % of control; under setting [14], 109 % of control; under setting [19], 122 % of control; under setting [15], 102 % of control.
For the compound `O=C(CSc1cc(-c2ccc(Cl)cc2)s[s+]1)c1ccc(Cl)cc1`, the T/C is 109 % of control (dose: 12.5 mg/kg/injection, schedule: Q01DX009 (ip), vehicle: saline); 89 % of control under setting [17]; 89 % of control under setting [18]; 97 % of control under setting [11]; 101 % of control under setting [19]; 90 % of control and 100 % of control and 105 % of control under setting [10]. Further, the T/C (dose: 200.0 mg/kg/injection, schedule: Q01DX009 (ip), vehicle: saline) was 107 % of control; the T/C under setting [12] is 97 % of control and 111 % of control; the T/C (dose: 300.0 mg/kg/injection, schedule: Q04DX003 (ip), vehicle: saline) was 111 % of control; the T/C (dose: 400.0 mg/kg/injection, schedule: Q04DX003 (ip), vehicle: saline) was 103 % of control.
Regarding `CCOC(=S)SCC(=O)Nc1ccc(Br)cc1`, the T/C by setting is: (dose: 15.0 mg/kg/injection, schedule: Q01DX009 (ip), vehicle: saline with Tween-80) 93 % of control; (dose: 30.0 mg/kg/injection, schedule: Q01DX009 (ip), vehicle: saline with Tween-80) 96 % of control; (dose: 60.0 mg/kg/injection, schedule: Q01DX009 (ip), vehicle: saline with Tween-80) 98 % of control.
For the compound `CC(C)=NOC(=O)Nc1ccc(Cl)cc1`, the T/C (dose: 25.0 mg/kg/injection, schedule: Q01DX009 (ip), vehicle: Klucel (hydroxypropylcellulose) (HPC)) is 111 % of control; the T/C under setting [8] is 118 % of control; the T/C under setting [9] is 124 % of control.
Turning to `CCN(CC)CCCC(C)NC/C=C/CNC(C)CCCN(CC)CC` (stereo not given), the T/C is 99 % of control (dose: 0.78 mg/kg/injection, schedule: Q01DX009 (ip), vehicle: water); 91 % of control under setting [1]; 91 % of control under setting [2]; 86 % of control under setting [3]; 91 % of control under setting [4]; 99 % of control (dose: 50.0 mg/kg/injection, schedule: Q01DX009 (ip), vehicle: water).
